Measured values: US11111214B2 (priority 2013, dated 2021)

Assays:
in vitro [1] = conditions: human, hepatocytes
in vitro [2] = conditions: rat, hepatocytes
[3] = not given; remark: listed apart in the source
[4] = biological target: T1, recombinant human mu (MOR) opioid receptor (Homo sapiens, UniProt P35372); test: biochemical; type: binding; conditions: for inhibition at 10 µM: read-out: Mu receptor % inhibition at single concentration, % inhibition @ 10 μM
T1 construct: expressed in transfected cells; host or cells: CHO-K1 cell membranes
T1 sequence (P35372 whole entry): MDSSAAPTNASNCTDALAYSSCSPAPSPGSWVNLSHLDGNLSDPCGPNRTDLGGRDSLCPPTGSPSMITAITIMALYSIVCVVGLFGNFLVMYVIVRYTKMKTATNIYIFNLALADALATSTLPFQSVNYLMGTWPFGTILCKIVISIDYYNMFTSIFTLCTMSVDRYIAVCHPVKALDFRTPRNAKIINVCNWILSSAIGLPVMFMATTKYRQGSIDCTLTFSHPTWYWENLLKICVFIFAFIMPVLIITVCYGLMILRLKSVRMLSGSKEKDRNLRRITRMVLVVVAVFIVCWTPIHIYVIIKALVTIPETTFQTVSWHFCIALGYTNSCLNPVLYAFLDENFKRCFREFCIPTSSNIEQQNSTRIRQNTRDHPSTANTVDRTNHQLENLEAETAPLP

[5] = biological target: T2, recombinant human kappa (KOR) opioid receptor (Homo sapiens, UniProt P41145); test: biochemical; type: binding
T2 construct: expressed in transfected cells; host or cells: CHO-K1 cell membranes
T2 sequence (P41145 whole entry): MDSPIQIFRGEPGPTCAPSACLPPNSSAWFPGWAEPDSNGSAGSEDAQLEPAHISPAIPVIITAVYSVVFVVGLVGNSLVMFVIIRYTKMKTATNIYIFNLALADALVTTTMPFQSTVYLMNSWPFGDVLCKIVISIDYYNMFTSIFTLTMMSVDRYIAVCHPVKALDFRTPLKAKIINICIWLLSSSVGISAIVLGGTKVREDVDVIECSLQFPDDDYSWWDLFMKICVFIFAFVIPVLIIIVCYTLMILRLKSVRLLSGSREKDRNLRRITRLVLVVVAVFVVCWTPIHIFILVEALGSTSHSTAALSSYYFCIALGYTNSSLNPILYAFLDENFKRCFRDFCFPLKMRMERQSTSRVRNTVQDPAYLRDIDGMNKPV

[6] = biological target: T3, KOR (kappa opioid receptor) (Homo sapiens, UniProt P41145); test: cell-based
T3 construct: expressed in transfected cells; host or cells: CHO-K1 cells stably expressing KOR
T3 sequence (P41145 whole entry): as above

Row | Structure (SMILES) | CLhep predicted (in vitro [1]) [mL/min/kg] | In vitro Hepatocyte Clearance, Human % hep Blood flow [%] | CLhep predicted (in vitro [2]) [mL/min/kg] | In vitro Hepatocyte Clearance, Rat % hep Blood flow [3] [%] | inhibition at 10 µM [4] [%] | IC50 [5] [nM] | Ki [5] [nM] | EC50 [6] [nM] | IC50 [4] [µM]
1 | CN(C(=O)Cc1ccc(Cl)c(Cl)c1)[C@H](CN1CCCC1)c1ccccc1 [ICI-199,441, reference compound] | 19.7 | 85.0 | 44 | 73.0 | – | – | – | – | –
2 | CN(C(=O)C(c1ccccc1)c1ccccc1)[C@H](CN1CC[C@H](O)C1)c1ccccc1 [Asimadoline, asimadoline, reference compound] | 18.2 | 79.0 | 51 | 85.0 | – | – | – | – | –
3 | COCCOCCOCCOCCOCCN1CCN(C[C@H](c2ccccc2)N(C)C(=O)Cc2ccc(Cl)c(Cl)c2)CC1 [compound 39, (S)—N-(2-(4-(2,5,8,11,14-pentaoxahexadecan-16-yl)piperazin-1-yl)-1-phenylethyl)-2-(3,4-dichlorophenyl)-N-methylacetamide] | – | – | – | – | 9.6 | 18500 | 4270 | 1950 | –
4 | COCCOCCOCCOCCOCCOCCOCCOC(=O)N[C@H](C(=O)Nc1cccc([C@@H](CN2CC[C@H](O)C2)N(C)C(=O)Cc2ccc(Cl)c(Cl)c2)c1)C(C)C [compound 48, N-(3-{(1S)-1-{[(3,4-Dichlorophenyl)acetyl](methyl)amino}-2-[(3S)-3-hydroxypyrrolidin-1-yl]ethyl}phenyl)-N^2-2,5,8,11,14,17,20,23-octaoxatetracosan-1-oylvalinamide] | – | – | – | – | 73.2 | 3.48 | 0.8 | 0.43 | –
5 | CN(C(=O)C(c1ccccc1)c1ccccc1)[C@H](CN1CCCC1)c1cccc(N)c1 [compound 51, (S)—N-Methyl-N-(1-(3-aminophenyl)-2-(pyrrolidin-1-yl)ethyl)-2,2-diphenylacetamide] | – | – | – | – | 54.5 | 62.2 | 14.3 | 5.18 | –
6 | CCCCOCCOCCOCCS(=O)(=O)Nc1cccc([C@@H](CN2CCCC2)N(C)C(=O)Cc2ccc(Cl)c(Cl)c2)c1 [compound 21, N-[(1S)-1-{3-[({2-[2-(2-butoxyethoxy)ethoxy]ethyl}sulfonyl)amino]phenyl}-2-(pyrrolidin-1-yl)ethyl]-2-(3,4-dichlorophenyl)-N-methylacetamide] | – | – | – | – | 96.5 | 0.18 | 0.04 | 0.2 | –
7 | CN(C(=O)Cc1ccc(Cl)c(Cl)c1)[C@H](CN1CC[C@H](O)C1)c1ccc(OCCO)cc1 [compound 38, 2-(3,4-dichlorophenyl)-N—((S)-1-(4-(2-hydroxyethoxy)phenyl)-2-((S)-3-hydroxypyrrolidin-1-yl)ethyl)-N-methylacetamide] | – | – | – | – | 87.2 | 0.49 | 0.06 | 0.03 | –
8 | COCCOCC(=O)Nc1cccc([C@@H](CN2CC[C@H](O)C2)N(C)C(=O)Cc2ccc(Cl)c(Cl)c2)c1 [compound 50, 2-(3,4-dichlorophenyl)-N-[(1S)-2-[(3S)-3-hydroxypyrrolidin-1-yl]-1-(3-{[(2-methoxyethoxy)acetyl]amino}phenyl)ethyl]-N-methylacetamide] | – | – | – | – | 101 | 0.52 | 0.12 | 0.06 | –
9 | CN(C(=O)Cc1ccc(Cl)c(Cl)c1)[C@H](CN1CC[C@H](OCCOCCO)C1)c1ccccc1 [compound 26, 2-(3,4-Dichlorophenyl)-N-[(1S)-2-{(3S)-3-[2-(2-hydroxyethoxy)ethoxy]pyrrolidin-1-yl}-1-phenylethyl]-N-methylacetamide] | – | – | – | – | 35.1 | 1130 | 148 | 14.3 | 38.7
10 | COCCOCCS(=O)(=O)Nc1cccc([C@@H](CN2CCCC2)N(C)C(=O)Cc2ccc(Cl)c(Cl)c2)c1 [compound 20, 2-(3,4-dichlorophenyl)-N-[(1S)-1-[3-({[2-(2-methoxyethoxy)ethyl]sulfonyl}amino)phenyl]-2-(pyrrolidin-1-yl)ethyl]-N-methylacetamide] | – | – | – | – | 97.1 | 0.6 | 0.14 | 0.15 | –
11 | COCCOCCOCCOCCOCCOCC(=O)Nc1cccc([C@@H](CN2CCCC2)N(C)C(=O)C(c2ccccc2)c2ccccc2)c1 [compound 12, N-{3-[(1S)-1-[(Diphenylacetyl)(methyl)amino]-2-(pyrrolidin-1-yl)ethyl]phenyl}-2,5,8,11,14,17-hexaoxanonadecan-19-amide] | – | – | – | – | 46.5 | 849 | 196 | 36.1 | 53.3
12 | COCCOCCOCCO[C@H]1CCN(C[C@H](c2ccc(OCCO)cc2)N(C)C(=O)Cc2ccc(Cl)c(Cl)c2)C1 [compound 37, 2-(3,4-Dichlorophenyl)-N-{(1S)-1-[4-(2-hydroxyethoxy)phenyl]-2-[(3S)-3-{2-[2-(2-methoxyethoxy)ethoxy]ethoxy}pyrrolidin-1-yl]ethyl}-N-methylacetamide] | – | – | – | – | 57.8 | 98.1 | 22.6 | 4.15 | –
13 | COCCOCCOCCOCCOCCNC(=O)Nc1cccc([C@@H](CN2CCCC2)N(C)C(=O)Cc2ccc(Cl)c(Cl)c2)c1 [compound 15, 2-(3,4-dichlorophenyl)-N-methyl-N-[(1S)-1-{3-[(2,5,8,11,14-pentaoxahexadecan-16-ylcarbamoyl)amino]phenyl}-2-(pyrrolidin-1-yl)ethyl]acetamide] | – | – | – | – | 84.1 | 2.33 | 0.54 | 0.42 | –
14 | CN(C(=O)Cc1ccc(Cl)c(Cl)c1)[C@H](CN1CC[C@H](OCCO)C1)c1ccccc1 [compound 25, 2-(3,4-Dichlorophenyl)-N-{(1S)-2-[(3S)-3-(2-hydroxyethoxy)pyrrolidin-1-yl]-1-phenylethyl}-N-methylacetamide] | – | – | – | – | 57.5 | 31.8 | 4.15 | 4.07 | 4.51
15 | COCCOCCOCCOCCOCCO[C@H]1CCN(C[C@H](c2ccccc2)N(C)C(=O)Cc2ccc(Cl)c(Cl)c2)C1 [compound 7, 2-(3,4-Dichlorophenyl)-N-methyl-N-{(1S)-2-[(3S)-3-(2,5,8,11,14-pentaoxahexadecan-16-yloxy)pyrrolidin-1-yl]-1-phenylethyl}acetamide] | – | – | – | – | 68.6 | 298 | 68.8 | 9 | 15.6
16 | COCCOCCOCCOCCOCCOCCOCCOC(=O)NC1(C(=O)Nc2cccc([C@@H](CN3CC[C@H](O)C3)N(C)C(=O)Cc3ccc(Cl)c(Cl)c3)c2)CC1 [compound 49, 2,5,8,11,14,17,20-Heptaoxadocosan-22-yl {1-[(3-{(1S)-1-{[(3,4dichlorophenyl)acetyl](methyl)amino}-2-[(3S)-3-hydroxypyrrolidin-1yl]ethyl}phenyl)carbamoyl]cyclopropyl}carbamate] | – | – | – | – | 78.1 | 1.61 | 0.37 | 0.11 | –
17 | CN(C(=O)Cc1ccc(Cl)c(Cl)c1)[C@H](CN1CC[C@H](OCCOCC(=O)O)C1)c1ccccc1 [compound 28, [2-({(3S)-1-[(2S)-2-{[(3,4-Dichlorophenyl)acetyl](methyl)amino}-2-phenylethyl]pyrrolidin-3-yl}oxy)ethoxy]acetic Acid] | – | – | – | – | 4.9 | 2100 | 274 | 148 | 73.4
18 | COCCS(=O)(=O)Nc1cccc([C@@H](CN2CCCC2)N(C)C(=O)Cc2ccc(Cl)c(Cl)c2)c1 [compound 18, 2-(3,4-dichlorophenyl)-N-[(1S)-1-(3-{[(2-methoxyethyl)sulfonyl]amino}phenyl)-2-(pyrrolidin-1-yl)ethyl]-N-methylacetamide] | – | – | – | – | 97.8 | 0.57 | 0.13 | 0.09 | –
19 | CN(C(=O)Cc1ccc(Cl)c(Cl)c1)[C@H](CN1CCCC1)c1cccc(NS(C)(=O)=O)c1 [compound 14, 2-(3,4-dichlorophenyl)-N-methyl-N-[(1S)-1-{3-[(methylsulfonyl)amino]phenyl}-2-(pyrrolidin-1-yl)ethyl]acetamide] | – | – | – | – | 99.3 | 0.34 | 0.08 | 0.05 | –
20 | CCCCOCCOCCOCCS(=O)(=O)Nc1cccc([C@@H](CN2CCCC2)N(C)C(=O)Cc2ccccn2)c1 [compound 30, N-[(1S)-1-{3-[({2-[2-(2-Butoxyethoxy)ethoxy]ethyl}sulfonyl)amino]phenyl}-2-(pyrrolidin-1-yl)ethyl]-N-methyl-2-(pyridin-2-yl)acetamide] | – | – | – | – | 85.5 | 464 | 60.5 | 38.9 | –
21 | CN(C(=O)Cc1ccc(Cl)c(Cl)c1)[C@H](CN1CC[C@H](OCCOCCOCC(=O)O)C1)c1ccccc1 [compound 29, {2-[2-({(3S)-1-[(2S)-2-{[(3,4-Dichlorophenyl)acetyl](methyl)amino}-2-phenylethyl]pyrrolidin-3-yl}oxy)ethoxy]ethoxy}acetic Acid] | – | – | – | – | 30.5 | 580 | 111 | 41.2 | 25.9
22 | COCCOCCOCCOCCOCCO[C@H]1CCN(C[C@H](c2ccccc2)N(C)C(=O)CNc2ccccc2)C1 [compound 8, N-Methyl-N-{(1S)-2-[(3S)-3-(2,5,8,11,14-pentaoxahexadecan-16-yloxy)pyrrolidin-1-yl]-1-phenylethyl}-N^2-phenylglycinamide] | – | – | – | – | 47.5 | 1480 | 342 | 74.7 | –
23 | CN(C(=O)Cc1ccc(Cl)c(Cl)c1)[C@H](CN1CC[C@H](OCC(=O)O)C1)c1ccccc1 [compound 24, ({(3S)-1-[(2S)-2-{[(3,4-dichlorophenyl)acetyl](methyl)amino}-2-phenylethyl]pyrrolidin-3-yl}oxy)acetic Acid] | – | – | – | – | -7.9 | 3590 | 468 | 265 | 158
